{"source": "the kinase profiling compilation of Christmann-Franck et al. (2016)", "key": {"EIF2AK2 (human)": {"target": "EIF2AK2 (human) (UniProt P19525)", "sequence (P19525 whole entry, looked up)": "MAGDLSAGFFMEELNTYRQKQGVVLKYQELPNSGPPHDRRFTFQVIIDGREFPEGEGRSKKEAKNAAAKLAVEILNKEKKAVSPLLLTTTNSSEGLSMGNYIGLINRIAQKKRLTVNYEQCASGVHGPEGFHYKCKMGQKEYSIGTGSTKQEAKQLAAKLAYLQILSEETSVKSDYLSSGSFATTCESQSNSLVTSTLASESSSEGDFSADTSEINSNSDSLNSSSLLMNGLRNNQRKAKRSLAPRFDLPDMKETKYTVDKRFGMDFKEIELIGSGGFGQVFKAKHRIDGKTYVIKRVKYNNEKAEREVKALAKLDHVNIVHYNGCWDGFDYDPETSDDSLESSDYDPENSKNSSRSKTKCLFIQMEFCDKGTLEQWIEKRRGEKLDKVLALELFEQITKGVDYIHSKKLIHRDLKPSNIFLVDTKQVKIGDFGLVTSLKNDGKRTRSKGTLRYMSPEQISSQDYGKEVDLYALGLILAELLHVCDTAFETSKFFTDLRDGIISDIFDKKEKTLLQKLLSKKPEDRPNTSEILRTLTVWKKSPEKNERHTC", "assay": "IMAP-FP"}, "EIF2AK3 (human)": {"target": "EIF2AK3 (human) (UniProt Q9NZJ5)", "assay": "IMAP-FP"}, "PLK2 (human)": {"target": "PLK2 (human) (UniProt Q9NYY3)", "assay": "IMAP-FP"}, "SRPK1 (human)": {"target": "SRPK1 (human) (UniProt Q96SB4)", "assay": "IMAP-FP", "settings": "compound 0.2 µM"}, "AKT3 (human)": {"target": "AKT3 (human) (UniProt Q9Y243)", "sequence (Q9Y243 whole entry, looked up)": "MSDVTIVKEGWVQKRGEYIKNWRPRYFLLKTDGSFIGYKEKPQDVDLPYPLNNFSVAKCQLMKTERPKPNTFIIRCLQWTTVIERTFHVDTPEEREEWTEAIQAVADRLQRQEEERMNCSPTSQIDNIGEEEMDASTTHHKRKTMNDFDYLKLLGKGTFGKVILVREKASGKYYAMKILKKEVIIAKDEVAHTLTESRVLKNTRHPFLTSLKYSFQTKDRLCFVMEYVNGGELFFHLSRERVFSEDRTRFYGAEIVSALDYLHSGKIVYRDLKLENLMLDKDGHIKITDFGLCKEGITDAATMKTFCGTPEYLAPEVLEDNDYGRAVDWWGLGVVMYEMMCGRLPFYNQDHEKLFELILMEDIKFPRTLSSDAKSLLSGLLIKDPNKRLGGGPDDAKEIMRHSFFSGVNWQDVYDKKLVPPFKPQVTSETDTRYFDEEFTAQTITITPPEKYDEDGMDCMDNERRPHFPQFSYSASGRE", "assay": "Caliper, Mobility shift assay off-chip"}, "CSNK1G3 (human)": {"target": "CSNK1G3 (human) (UniProt Q9Y6M4)", "assay": "Caliper, Mobility shift assay off-chip"}, "FLT3 (human)": {"target": "FLT3 (human) (UniProt P36888)", "assay": "Caliper, Mobility shift assay off-chip"}, "MAPK8 (human)": {"target": "MAPK8 (human) (UniProt P45983)", "assay": "Caliper, Mobility shift assay off-chip"}, "PLK1 (human)": {"target": "PLK1 (human) (UniProt P53350)", "assay": "Caliper, Mobility shift assay off-chip"}, "BMPR1A (human)": {"target": "BMPR1A (human) (UniProt P36894)", "assay": "ELISA"}, "BRAF (human)": {"target": "BRAF (human) (UniProt P15056)", "assay": "ELISA", "settings": "compound 0.2 µM"}, "LIMK1 (human)": {"target": "LIMK1 (human) (UniProt P53667)", "assay": "ELISA"}, "MAP2K1 (human)": {"target": "MAP2K1 (human) (UniProt Q02750)", "sequence (Q02750 whole entry, looked up)": "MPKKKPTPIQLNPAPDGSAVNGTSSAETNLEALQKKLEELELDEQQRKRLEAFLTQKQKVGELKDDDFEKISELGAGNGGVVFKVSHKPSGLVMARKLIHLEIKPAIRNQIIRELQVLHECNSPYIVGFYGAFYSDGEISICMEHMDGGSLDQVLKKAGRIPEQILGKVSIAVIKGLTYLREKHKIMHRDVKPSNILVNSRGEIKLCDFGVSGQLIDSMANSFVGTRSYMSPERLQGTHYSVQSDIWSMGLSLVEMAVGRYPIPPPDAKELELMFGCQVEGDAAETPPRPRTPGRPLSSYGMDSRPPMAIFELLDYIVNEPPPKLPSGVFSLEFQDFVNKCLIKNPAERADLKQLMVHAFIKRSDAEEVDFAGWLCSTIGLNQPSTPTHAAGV", "assay": "ELISA"}, "MAP2K2 (human)": {"target": "MAP2K2 (human) (UniProt P36507)", "assay": "ELISA"}, "MAP2K3 (human)": {"target": "MAP2K3 (human) (UniProt P46734)", "assay": "ELISA"}, "MAP2K4 (human)": {"target": "MAP2K4 (human) (UniProt P45985)", "sequence (P45985 whole entry, looked up)": "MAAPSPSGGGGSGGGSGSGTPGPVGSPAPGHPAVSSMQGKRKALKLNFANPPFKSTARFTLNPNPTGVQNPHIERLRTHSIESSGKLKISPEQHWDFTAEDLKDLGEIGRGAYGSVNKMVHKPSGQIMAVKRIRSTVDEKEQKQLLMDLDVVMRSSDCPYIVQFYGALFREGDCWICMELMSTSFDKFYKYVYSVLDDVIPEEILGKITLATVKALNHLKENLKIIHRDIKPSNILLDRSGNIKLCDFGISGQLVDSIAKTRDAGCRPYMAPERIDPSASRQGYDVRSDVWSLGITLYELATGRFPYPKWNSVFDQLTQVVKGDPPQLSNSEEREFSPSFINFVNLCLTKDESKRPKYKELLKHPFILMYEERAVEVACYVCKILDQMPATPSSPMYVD", "assay": "ELISA"}, "MAP2K5 (human)": {"target": "MAP2K5 (human) (UniProt Q13163)", "assay": "ELISA", "settings": "compound 0.2 µM"}, "MAP2K6 (human)": {"target": "MAP2K6 (human) (UniProt P52564)", "assay": "ELISA"}, "MAP2K7 (human)": {"target": "MAP2K7 (human) (UniProt O14733)", "assay": "ELISA"}, "MAP3K1 (human)": {"target": "MAP3K1 (human) (UniProt Q13233)", "assay": "ELISA"}, "MAP3K10 (human)": {"target": "MAP3K10 (human) (UniProt Q02779)", "assay": "ELISA"}, "MAP3K11 (human)": {"target": "MAP3K11 (human) (UniProt Q16584)", "assay": "ELISA"}, "MAP3K12 (human)": {"target": "MAP3K12 (human) (UniProt Q12852)", "sequence (Q12852 whole entry, looked up)": "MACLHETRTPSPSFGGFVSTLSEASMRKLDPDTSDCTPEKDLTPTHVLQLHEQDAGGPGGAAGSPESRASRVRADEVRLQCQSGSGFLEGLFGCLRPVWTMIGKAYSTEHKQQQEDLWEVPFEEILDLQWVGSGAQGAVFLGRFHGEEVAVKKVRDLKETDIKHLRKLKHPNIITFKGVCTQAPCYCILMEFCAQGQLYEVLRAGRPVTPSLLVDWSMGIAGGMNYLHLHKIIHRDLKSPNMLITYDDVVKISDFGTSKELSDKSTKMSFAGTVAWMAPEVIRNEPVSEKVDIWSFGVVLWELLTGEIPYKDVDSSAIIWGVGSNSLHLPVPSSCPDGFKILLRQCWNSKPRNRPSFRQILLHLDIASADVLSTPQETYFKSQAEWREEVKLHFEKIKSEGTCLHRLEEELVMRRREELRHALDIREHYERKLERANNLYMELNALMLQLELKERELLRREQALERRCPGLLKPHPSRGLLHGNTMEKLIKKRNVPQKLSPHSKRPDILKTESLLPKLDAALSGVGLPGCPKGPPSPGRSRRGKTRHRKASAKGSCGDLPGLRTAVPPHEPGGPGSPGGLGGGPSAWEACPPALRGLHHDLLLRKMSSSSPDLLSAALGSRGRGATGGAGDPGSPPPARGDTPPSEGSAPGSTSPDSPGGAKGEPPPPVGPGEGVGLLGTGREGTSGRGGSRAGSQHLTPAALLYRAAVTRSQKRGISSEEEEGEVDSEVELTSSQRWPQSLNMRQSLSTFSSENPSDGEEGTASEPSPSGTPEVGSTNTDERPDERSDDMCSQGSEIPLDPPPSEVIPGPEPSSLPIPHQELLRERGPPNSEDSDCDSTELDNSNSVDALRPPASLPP", "assay": "ELISA"}, "MAP3K2 (human)": {"target": "MAP3K2 (human) (UniProt Q9Y2U5)", "assay": "ELISA"}, "MAP3K3 (human)": {"target": "MAP3K3 (human) (UniProt Q99759)", "assay": "ELISA"}, "MAP3K4 (human)": {"target": "MAP3K4 (human) (UniProt Q9Y6R4)", "assay": "ELISA"}, "MAP3K5 (human)": {"target": "MAP3K5 (human) (UniProt Q99683)", "sequence (Q99683 whole entry, looked up)": "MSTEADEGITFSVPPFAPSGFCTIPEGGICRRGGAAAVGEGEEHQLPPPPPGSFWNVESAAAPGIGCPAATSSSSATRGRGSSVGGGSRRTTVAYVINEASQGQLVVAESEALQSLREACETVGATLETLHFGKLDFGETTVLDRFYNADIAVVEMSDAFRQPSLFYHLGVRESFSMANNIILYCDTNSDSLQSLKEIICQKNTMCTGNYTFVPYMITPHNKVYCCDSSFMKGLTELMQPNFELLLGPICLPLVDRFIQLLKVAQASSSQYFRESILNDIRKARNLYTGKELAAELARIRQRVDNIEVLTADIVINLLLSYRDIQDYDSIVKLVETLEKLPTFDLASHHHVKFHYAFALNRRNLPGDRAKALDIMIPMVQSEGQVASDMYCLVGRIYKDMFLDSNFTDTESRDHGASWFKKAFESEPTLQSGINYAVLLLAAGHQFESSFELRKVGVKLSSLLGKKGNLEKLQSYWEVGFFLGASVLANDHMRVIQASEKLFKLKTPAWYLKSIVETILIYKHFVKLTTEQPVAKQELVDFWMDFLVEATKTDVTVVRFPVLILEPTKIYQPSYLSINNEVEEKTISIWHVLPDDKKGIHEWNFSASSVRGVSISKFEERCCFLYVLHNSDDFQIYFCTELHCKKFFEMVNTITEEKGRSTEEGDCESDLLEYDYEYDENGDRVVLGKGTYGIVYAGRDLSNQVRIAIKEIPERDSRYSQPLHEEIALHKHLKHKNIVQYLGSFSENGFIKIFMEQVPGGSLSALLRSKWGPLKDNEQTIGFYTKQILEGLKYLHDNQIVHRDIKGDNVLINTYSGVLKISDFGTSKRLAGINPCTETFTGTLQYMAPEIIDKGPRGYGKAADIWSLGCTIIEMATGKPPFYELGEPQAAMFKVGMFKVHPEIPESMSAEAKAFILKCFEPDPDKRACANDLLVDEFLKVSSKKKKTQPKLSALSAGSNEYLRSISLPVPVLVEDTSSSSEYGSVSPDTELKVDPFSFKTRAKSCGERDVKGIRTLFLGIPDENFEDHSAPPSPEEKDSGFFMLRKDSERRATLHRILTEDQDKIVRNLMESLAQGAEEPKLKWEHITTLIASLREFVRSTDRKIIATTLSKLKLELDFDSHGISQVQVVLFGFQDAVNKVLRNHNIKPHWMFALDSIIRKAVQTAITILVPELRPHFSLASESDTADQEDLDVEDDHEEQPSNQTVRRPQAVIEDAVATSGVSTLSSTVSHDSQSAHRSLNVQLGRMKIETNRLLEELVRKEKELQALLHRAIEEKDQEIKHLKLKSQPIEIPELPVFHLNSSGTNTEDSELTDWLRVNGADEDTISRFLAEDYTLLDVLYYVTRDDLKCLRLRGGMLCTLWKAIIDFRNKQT", "assay": "ELISA"}, "MAP3K8 (human)": {"target": "MAP3K8 (human) (UniProt P41279)", "sequence (P41279 whole entry, looked up)": "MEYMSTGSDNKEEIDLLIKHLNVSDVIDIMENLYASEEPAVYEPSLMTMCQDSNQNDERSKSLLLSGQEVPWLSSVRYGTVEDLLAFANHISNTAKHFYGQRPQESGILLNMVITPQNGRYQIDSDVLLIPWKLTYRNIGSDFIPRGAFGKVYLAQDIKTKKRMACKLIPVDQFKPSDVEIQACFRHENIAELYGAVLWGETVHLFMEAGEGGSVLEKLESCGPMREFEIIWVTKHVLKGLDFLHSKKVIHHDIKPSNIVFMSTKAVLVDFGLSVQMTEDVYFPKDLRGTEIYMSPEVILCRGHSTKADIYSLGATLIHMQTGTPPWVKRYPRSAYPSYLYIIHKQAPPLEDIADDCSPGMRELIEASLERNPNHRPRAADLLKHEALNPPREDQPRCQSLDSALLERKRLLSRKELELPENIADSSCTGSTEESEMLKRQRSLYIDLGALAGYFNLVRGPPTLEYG", "assay": "ELISA"}, "MAP3K9 (human)": {"target": "MAP3K9 (human) (UniProt P80192)", "assay": "ELISA"}, "MOS (human)": {"target": "MOS (human) (UniProt P00540)", "assay": "ELISA"}, "PLK4 (human)": {"target": "PLK4 (human) (UniProt O00444)", "assay": "ELISA"}, "RAF1 (human)": {"target": "RAF1 (human) (UniProt P04049)", "assay": "ELISA"}, "STK11 (human)": {"target": "STK11 (human) (UniProt Q15831)", "sequence (Q15831 whole entry, looked up)": "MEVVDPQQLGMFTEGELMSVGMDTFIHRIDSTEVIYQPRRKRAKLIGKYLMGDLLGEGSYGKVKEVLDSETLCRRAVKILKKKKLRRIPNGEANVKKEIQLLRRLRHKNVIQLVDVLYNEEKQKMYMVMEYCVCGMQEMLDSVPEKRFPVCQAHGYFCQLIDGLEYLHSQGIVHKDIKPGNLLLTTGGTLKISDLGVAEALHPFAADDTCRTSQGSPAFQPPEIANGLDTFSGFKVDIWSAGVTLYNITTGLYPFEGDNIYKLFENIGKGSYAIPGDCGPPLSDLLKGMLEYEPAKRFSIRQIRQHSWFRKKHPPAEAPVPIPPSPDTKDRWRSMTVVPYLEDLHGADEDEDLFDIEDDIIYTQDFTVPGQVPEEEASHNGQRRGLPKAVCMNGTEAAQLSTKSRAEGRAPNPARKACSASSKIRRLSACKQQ", "assay": "ELISA"}, "TTK (human)": {"target": "TTK (human) (UniProt P33981)", "assay": "ELISA"}, "WEE1 (human)": {"target": "WEE1 (human) (UniProt P30291)", "assay": "ELISA"}}, "data": [{"smiles": "COc1cc2c(Oc3ccc4[nH]c(C)cc4c3F)ncnc2cc1OCCCN1CCCC1", "values": [{"measurement": "inhibition", "setting": "EIF2AK2 (human); compound 0.02 µM", "value": -13.8, "unit": "%"}, {"measurement": "inhibition", "setting": "EIF2AK2 (human); compound 0.2 µM", "value": -6.6, "unit": "%"}, {"measurement": "inhibition", "setting": "EIF2AK3 (human); compound 0.02 µM", "value": -18, "unit": "%"}, {"measurement": "inhibition", "setting": "EIF2AK3 (human); compound 0.2 µM", "value": -16.8, "unit": "%"}, {"measurement": "inhibition", "setting": "PLK2 (human); compound 0.02 µM", "value": -0.9, "unit": "%"}, {"measurement": "inhibition", "setting": "PLK2 (human); compound 0.2 µM", "value": -1.6, "unit": "%"}, {"measurement": "inhibition", "setting": "SRPK1 (human)", "value": -5.6, "unit": "%"}, {"measurement": "inhibition", "setting": "AKT3 (human); compound 0.02 µM", "value": -3.5, "unit": "%"}, {"measurement": "inhibition", "setting": "AKT3 (human); compound 0.2 µM", "value": -4.2, "unit": "%"}, {"measurement": "inhibition", "setting": "CSNK1G3 (human); compound 0.02 µM", "value": 2.8, "unit": "%"}, {"measurement": "inhibition", "setting": "CSNK1G3 (human); compound 0.2 µM", "value": -1.8, "unit": "%"}, {"measurement": "inhibition", "setting": "FLT3 (human); compound 0.02 µM", "value": 10, "unit": "%"}, {"measurement": "inhibition", "setting": "FLT3 (human); compound 0.2 µM", "value": 9.8, "unit": "%"}, {"measurement": "inhibition", "setting": "MAPK8 (human); compound 0.02 µM", "value": -2.8, "unit": "%"}, {"measurement": "inhibition", "setting": "MAPK8 (human); compound 0.2 µM", "value": -2.5, "unit": "%"}, {"measurement": "inhibition", "setting": "PLK1 (human); compound 0.02 µM", "value": -0.1, "unit": "%"}, {"measurement": "inhibition", "setting": "PLK1 (human); compound 0.2 µM", "value": -2, "unit": "%"}, {"measurement": "inhibition", "setting": "BMPR1A (human); compound 0.02 µM", "value": 8.3, "unit": "%"}, {"measurement": "inhibition", "setting": "BMPR1A (human); compound 0.2 µM", "value": -7.9, "unit": "%"}, {"measurement": "inhibition", "setting": "BRAF (human)", "value": 2, "unit": "%"}, {"measurement": "inhibition", "setting": "LIMK1 (human); compound 0.02 µM", "value": -7.3, "unit": "%"}, {"measurement": "inhibition", "setting": "LIMK1 (human); compound 0.2 µM", "value": -7.8, "unit": "%"}, {"measurement": "inhibition", "setting": "MAP2K1 (human); compound 0.02 µM", "value": -0.6, "unit": "%"}, {"measurement": "inhibition", "setting": "MAP2K1 (human); compound 0.2 µM", "value": -2.4, "unit": "%"}, {"measurement": "inhibition", "setting": "MAP2K2 (human); compound 0.02 µM", "value": -4.9, "unit": "%"}, {"measurement": "inhibition", "setting": "MAP2K2 (human); compound 0.2 µM", "value": -23, "unit": "%"}, {"measurement": "inhibition", "setting": "MAP2K3 (human); compound 0.02 µM", "value": -7.4, "unit": "%"}, {"measurement": "inhibition", "setting": "MAP2K3 (human); compound 0.2 µM", "value": -2.9, "unit": "%"}, {"measurement": "inhibition", "setting": "MAP2K4 (human); compound 0.02 µM", "value": 0.9, "unit": "%"}, {"measurement": "inhibition", "setting": "MAP2K4 (human); compound 0.2 µM", "value": -5.2, "unit": "%"}, {"measurement": "inhibition", "setting": "MAP2K5 (human)", "value": -8.2, "unit": "%"}, {"measurement": "inhibition", "setting": "MAP2K6 (human); compound 0.02 µM", "value": 2.8, "unit": "%"}, {"measurement": "inhibition", "setting": "MAP2K6 (human); compound 0.2 µM", "value": -5, "unit": "%"}, {"measurement": "inhibition", "setting": "MAP2K7 (human); compound 0.02 µM", "value": -6.9, "unit": "%"}, {"measurement": "inhibition", "setting": "MAP2K7 (human); compound 0.2 µM", "value": -3.5, "unit": "%"}, {"measurement": "inhibition", "setting": "MAP3K1 (human); compound 0.02 µM", "value": 1.2, "unit": "%"}, {"measurement": "inhibition", "setting": "MAP3K1 (human); compound 0.2 µM", "value": -1, "unit": "%"}, {"measurement": "inhibition", "setting": "MAP3K10 (human); compound 0.02 µM", "value": 3.6, "unit": "%"}, {"measurement": "inhibition", "setting": "MAP3K10 (human); compound 0.2 µM", "value": 6, "unit": "%"}, {"measurement": "inhibition", "setting": "MAP3K11 (human); compound 0.02 µM", "value": -1.7, "unit": "%"}, {"measurement": "inhibition", "setting": "MAP3K11 (human); compound 0.2 µM", "value": -0.3, "unit": "%"}, {"measurement": "inhibition", "setting": "MAP3K12 (human); compound 0.02 µM", "value": 8.9, "unit": "%"}, {"measurement": "inhibition", "setting": "MAP3K12 (human); compound 0.2 µM", "value": 10.3, "unit": "%"}, {"measurement": "inhibition", "setting": "MAP3K2 (human); compound 0.02 µM", "value": 1.9, "unit": "%"}, {"measurement": "inhibition", "setting": "MAP3K2 (human); compound 0.2 µM", "value": 4.4, "unit": "%"}, {"measurement": "inhibition", "setting": "MAP3K3 (human); compound 0.02 µM", "value": 1.2, "unit": "%"}, {"measurement": "inhibition", "setting": "MAP3K3 (human); compound 0.2 µM", "value": 2.9, "unit": "%"}, {"measurement": "inhibition", "setting": "MAP3K4 (human); compound 0.02 µM", "value": -1.7, "unit": "%"}, {"measurement": "inhibition", "setting": "MAP3K4 (human); compound 0.2 µM", "value": -6.3, "unit": "%"}, {"measurement": "inhibition", "setting": "MAP3K5 (human); compound 0.02 µM", "value": 8.7, "unit": "%"}, {"measurement": "inhibition", "setting": "MAP3K5 (human); compound 0.2 µM", "value": 4, "unit": "%"}, {"measurement": "inhibition", "setting": "MAP3K8 (human); compound 0.02 µM", "value": -3.2, "unit": "%"}, {"measurement": "inhibition", "setting": "MAP3K8 (human); compound 0.2 µM", "value": -1, "unit": "%"}, {"measurement": "inhibition", "setting": "MAP3K9 (human); compound 0.02 µM", "value": 4.9, "unit": "%"}, {"measurement": "inhibition", "setting": "MAP3K9 (human); compound 0.2 µM", "value": 10.5, "unit": "%"}, {"measurement": "inhibition", "setting": "MOS (human); compound 0.02 µM", "value": 4.2, "unit": "%"}, {"measurement": "inhibition", "setting": "MOS (human); compound 0.2 µM", "value": 3.7, "unit": "%"}, {"measurement": "inhibition", "setting": "PLK4 (human); compound 0.02 µM", "value": 7.6, "unit": "%"}, {"measurement": "inhibition", "setting": "PLK4 (human); compound 0.2 µM", "value": 8.4, "unit": "%"}, {"measurement": "inhibition", "setting": "RAF1 (human); compound 0.02 µM", "value": 3.1, "unit": "%"}, {"measurement": "inhibition", "setting": "RAF1 (human); compound 0.2 µM", "value": -1.7, "unit": "%"}, {"measurement": "inhibition", "setting": "STK11 (human); compound 0.02 µM", "value": 0.9, "unit": "%"}, {"measurement": "inhibition", "setting": "STK11 (human); compound 0.2 µM", "value": 19, "unit": "%"}, {"measurement": "inhibition", "setting": "TTK (human); compound 0.02 µM", "value": -4, "unit": "%"}, {"measurement": "inhibition", "setting": "TTK (human); compound 0.2 µM", "value": -2, "unit": "%"}, {"measurement": "inhibition", "setting": "WEE1 (human); compound 0.02 µM", "value": -5.4, "unit": "%"}, {"measurement": "inhibition", "setting": "WEE1 (human); compound 0.2 µM", "value": 0.5, "unit": "%"}]}]}
